Each compound was assayed against T1, hFXR (Homo sapiens, UniProt Q96RI1) (assay: In Vitro FXR Assay (TK): hFXR/hRXR TK-ECRE-luc reporter in transfected CV-1 cells). Settings: CV-1 cells transfected with hFXR, hRXR, 18 hrs incubation, luminescence, maximum efficacy <25% of Fexarmine control also classified as ‘+’.
T1 construct: expressed in transfected cells; host or cells: CV-1 cells
T1 sequence (Q96RI1 1-486): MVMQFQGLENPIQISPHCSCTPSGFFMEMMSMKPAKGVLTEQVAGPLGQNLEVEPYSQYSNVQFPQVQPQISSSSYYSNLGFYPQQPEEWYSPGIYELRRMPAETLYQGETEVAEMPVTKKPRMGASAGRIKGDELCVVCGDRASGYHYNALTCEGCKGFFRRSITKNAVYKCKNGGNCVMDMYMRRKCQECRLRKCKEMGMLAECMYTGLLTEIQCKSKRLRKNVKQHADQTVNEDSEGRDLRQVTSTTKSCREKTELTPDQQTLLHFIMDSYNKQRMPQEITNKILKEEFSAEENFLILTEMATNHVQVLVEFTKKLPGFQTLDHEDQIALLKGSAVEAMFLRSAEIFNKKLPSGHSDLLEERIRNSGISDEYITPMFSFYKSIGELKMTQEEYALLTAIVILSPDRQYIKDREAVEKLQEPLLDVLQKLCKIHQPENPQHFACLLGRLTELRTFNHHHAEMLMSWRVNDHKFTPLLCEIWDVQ
T1 sequence (P19793 1-462 partner): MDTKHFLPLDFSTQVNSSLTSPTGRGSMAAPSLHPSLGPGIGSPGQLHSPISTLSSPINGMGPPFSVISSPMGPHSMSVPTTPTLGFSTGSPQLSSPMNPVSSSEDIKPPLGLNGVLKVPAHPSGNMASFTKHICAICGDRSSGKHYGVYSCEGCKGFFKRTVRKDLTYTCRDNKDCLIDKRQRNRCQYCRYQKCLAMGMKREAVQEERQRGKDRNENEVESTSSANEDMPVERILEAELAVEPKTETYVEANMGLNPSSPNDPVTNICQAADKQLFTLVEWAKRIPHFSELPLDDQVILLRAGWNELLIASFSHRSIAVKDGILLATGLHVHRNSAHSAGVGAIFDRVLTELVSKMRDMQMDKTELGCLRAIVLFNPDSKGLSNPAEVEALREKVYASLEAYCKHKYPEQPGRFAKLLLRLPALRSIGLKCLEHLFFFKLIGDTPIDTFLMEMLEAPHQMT
Assay type: cell-based
Protocol: Example B-1: In Vitro FXR Assay (TK)
CV-1 cells were seeded at a density of 2,000,000 cells in a T175 flask with DMEM+10% charcoal double-stripped FBS and incubated at 37° C. in 5% CO2 for 18 h (O/N).
After 18 h of incubation, the medium in the T175 flask was changed with fresh DMEM+10% charcoal super-stripped serum. In a polypropylene tube, 2500 μL OptiMEM (Life Technologies, Cat #31985-062) was combined with expression plasmids for hFXR, hRXR, TK-ECRE-luc and pCMX-YFP. The tube was then briefly vortexed and incubated at room temperature for 5 minutes. Transfection reagent (X-tremeGENE HP from Roche, Cat #06 366 236 001) was added to the OptiMEM/plasmid mixture vortexed and incubated at room temperature for 20 minutes. Following incubation, the transfection reagent/DNA mixture complex was added to cells in the T175 flask and the cells were incubated at 37° C. in 5% CO2 for 18 h (0/N).
Compounds were serially diluted in DMSO and added to transfected CV-1 cells. The cells were then incubated for 18 hrs. The next day cells were lysed and examined for luminescence.

| Compound | EC50 [nM] |
| --- | --- |
| COc1ccc([C@H]2CC[C@H](CN(c3cccc(-c4ccc(N(C)C)nc4)c3)C(=O)[C@H]3CC[C@H](O)CC3)CC2)cc1C [Compound 1, trans-N-(3-(6-(Dimethylamino)pyridine-3-yl)phenyl)-4-hydroxy-N-((trans-4-(4-methoxy-3-methylphenyl)cyclohexyl)methyl)cyclohexanecarboxamide] | ≤ 500 |
| COc1ccc(-c2cccc(N(C[C@H]3CC[C@H](c4ccc(OC)c(C)c4)CC3)C(=O)[C@H]3CC[C@H](O)CC3)c2)cn1 [Compound 1.01, trans-4-Hydroxy-N-((trans-4-(4-methoxy-3-methylphenyl)cyclohexyl)methyl)-N-(3-(6-methoxypyridin-3-yl)phenyl)cyclohexanecarboxamide] | ≤ 500 |
| COc1ncc(-c2cccc(N(C[C@H]3CC[C@H](c4ccc(OC)c(C)c4)CC3)C(=O)[C@H]3CC[C@H](O)CC3)c2)cn1 [Compound 1.02, trans-4-Hydroxy-N-((trans-4-(4-methoxy-3-methylphenyl)cyclohexyl)methyl)-N-(3-(2-methoxypyrimidin-5-yl)phenyl)cyclohexanecarboxamide] | ≤ 500 |
| COc1ccc(-c2cccc(N(C[C@H]3CC[C@H](c4ccc(OC)c(C)c4)CC3)C(=O)[C@H]3CC[C@H](O)CC3)c2)nc1 [Compound 1.03, trans-4-Hydroxy-N-((trans-4-(4-methoxy-3-methylphenyl)cyclohexyl)methyl)-N-(3-(5-methoxypyridin-2-yl)phenyl)cyclohexanecarboxamide] | ≤ 500 |
| COc1ccc([C@H]2CC[C@H](CN(c3cccc(-c4ccc(C(F)(F)F)nc4)c3)C(=O)[C@H]3CC[C@H](O)CC3)CC2)cc1C [Compound 1.04, trans-4-Hydroxy-N-((trans-4-(4-methoxy-3-methylphenyl)cyclohexyl)methyl)-N-(3-(6-(trifluoromethyl)pyridine-3-yl)phenyl)cyclohexanecarboxamide] | ≤ 500 |
| COc1ccc([C@H]2CC[C@H](CN(c3cccc(-c4cncc(C(F)(F)F)c4)c3)C(=O)[C@H]3CC[C@H](O)CC3)CC2)cc1C [Compound 1.05, trans-4-Hydroxy-N-((trans-4-(4-methoxy-3-methylphenyl)cyclohexyl)methyl)-N-(3-(5-(trifluoromethyl)pyridine-3-yl)phenyl)cyclohexanecarboxamide] | ≥ 1000 |
| COc1ccc([C@H]2CC[C@H](CN(c3cccc(-c4ccc(OC(C)C)nc4)c3)C(=O)[C@H]3CC[C@H](O)CC3)CC2)cc1C [Compound 1.06, trans-4-Hydroxy-N-(3-(6-isopropoxypyridin-3-yl)phenyl)-N-((trans-4-(4-methoxy-3-methylphenyl)cyclohexyl)methyl)cyclohexanecarboxamide] | ≤ 500 |
| COc1ccc([C@H]2CC[C@H](CN(c3cccc(-c4ccc(C5CC5)nc4)c3)C(=O)[C@H]3CC[C@H](O)CC3)CC2)cc1C [Compound 1.07, trans-N-(3-(6-Cyclopropylpyridin-3-yl)phenyl)-4-hydroxy-N-((trans-4-(4-methoxy-3-methylphenyl)cyclohexyl)methyl)cyclohexanecarboxamide] | ≤ 500 |
| COc1ccc(-c2cccc(N(C[C@H]3CC[C@H](c4ccc(OC)c(C)c4)CC3)C(=O)[C@H]3CC[C@H](O)CC3)c2)cc1C [Compound 1.08, trans-4-Hydroxy-N-(4′-methoxy-3′-methyl-[1,1′-biphenyl]-3-yl)-N-((trans-4-(4-methoxy-3-methylphenyl)cyclohexyl)methyl)cyclohexanecarboxamide] | 500 to 1000 |
| COc1ccc([C@H]2CC[C@H](CN(c3cccc(-c4cnc(N(C)C)nc4)c3)C(=O)[C@H]3CC[C@H](O)CC3)CC2)cc1C [Compound 1.09, trans-N-(3-(2-(Dimethylamino)pyrimidin-5-yl)phenyl)-4-hydroxy-N-((trans-4-(4-methoxy-3-methylphenyl)cyclohexyl)methyl)cyclohexanecarboxamide] | ≤ 500 |
| COc1ccc([C@H]2CC[C@H](CN(c3cccc(-c4ccc(N5CCCC5)nc4)c3)C(=O)[C@H]3CC[C@H](O)CC3)CC2)cc1C [Compound 1.10, trans-4-Hydroxy-N-((trans-4-(4-methoxy-3-methylphenyl)cyclohexyl)methyl)-N-(3-(6-(pyrrolidin-1-yl)pyridine-3-yl)phenyl)cyclohexanecarboxamide] | ≤ 500 |
| COc1ccc([C@H]2CC[C@H](CN(c3cc(-c4ccc(N(C)C)nc4)ccn3)C(=O)[C@H]3CC[C@H](O)CC3)CC2)cc1C [Compound 1.11, trans-N-(6-(Dimethylamino)-[3,4′-bipyridin]-2′-yl)-4-hydroxy-N-((trans-4-(4-methoxy-3-methylphenyl)cyclohexyl)methyl)cyclohexanecarboxamide] | ≤ 500 |
| COc1cnc(-c2cccc(N(C[C@H]3CC[C@H](c4ccc(OC)c(C)c4)CC3)C(=O)[C@H]3CC[C@H](O)CC3)c2)nc1 [Compound 2.01, trans-4-Hydroxy-N-((trans-4-(4-methoxy-3-methylphenyl)cyclohexyl)methyl)-N-(3-(5-methoxypyrimidin-2-yl)phenyl)cyclohexanecarboxamide] | ≤ 500 |
| COc1cnc(-c2cccc(N(C[C@H]3CC[C@H](c4ccc(OC)c(C)c4)CC3)C(=O)[C@H]3CC[C@H](O)CC3)c2)cn1 [Compound 2.02, trans-4-Hydroxy-N-((trans-4-(4-methoxy-3-methylphenyl)cyclohexyl)methyl)-N-(3-(5-methoxypyrazin-2-yl)phenyl)cyclohexanecarboxamide] | ≤ 500 |
| COc1ccc([C@H]2CC[C@H](CN(c3cccc(-c4ccc(C(C)C)nc4)c3)C(=O)[C@H]3CC[C@H](O)CC3)CC2)cc1C [Compound 2.03, trans-4-Hydroxy-I-(3-(6-isopropylpyridin-3-yl)phenyl)-N-((trans-4-(4-methoxy-3-methylphenyl)cyclohexyl)methyl)cyclohexanecarboxamide] | ≤ 500 |
| COc1ccc([C@H]2CC[C@H](CN(c3cccc(-c4nnc(C)s4)c3)C(=O)[C@H]3CC[C@H](O)CC3)CC2)cc1C [Compound 2.04, trans-4-Hydroxy-N-((trans-4-(4-methoxy-3-methylphenyl)cyclohexyl)methyl)-N-(3-(5-methyl-1,3,4-thiadiazol-2-yl)phenyl)cyclohexanecarboxamide] | ≥ 1000 |
| COc1ccc([C@H]2CC[C@H](CN(c3cccc(-c4cn(C)nn4)c3)C(=O)[C@H]3CC[C@H](O)CC3)CC2)cc1C [Compound 2.05, trans-4-Hydroxy-N-((trans-4-(4-methoxy-3-methylphenyl)cyclohexyl)methyl)-N-(3-(1-methyl-1H-1,2,3-triazol-4-yl)phenyl)cyclohexanecarboxamide] | ≥ 1000 |
| COc1ccc([C@H]2CC[C@H](CN(c3cccc(-c4cc(C)ns4)c3)C(=O)[C@H]3CC[C@H](O)CC3)CC2)cc1C [Compound 2.06, trans-4-Hydroxy-N-((trans-4-(4-methoxy-3-methylphenyl)cyclohexyl)methyl)-N-(3-(3-methylisothiazol-5-yl)phenyl)cyclohexanecarboxamide] | ≤ 500 |
| COc1ccc([C@H]2CC[C@H](CN(c3cccc(-c4ccsn4)c3)C(=O)[C@H]3CC[C@H](O)CC3)CC2)cc1C [Compound 2.07, trans-4-Hydroxy-N-(3-(isothiazol-3-yl)phenyl)-N-((trans-4-(4-methoxy-3-methylphenyl)cyclohexyl)methyl)cyclohexanecarboxamide] | 500 to 1000 |
| COc1ccc([C@H]2CC[C@H](CN(c3cccc(-c4nc(C)ns4)c3)C(=O)[C@H]3CC[C@H](O)CC3)CC2)cc1C [Compound 2.08, trans-4-Hydroxy-N-((trans-4-(4-methoxy-3-methylphenyl)cyclohexyl)methyl)-N-(3-(3-methyl-1,2,4-thiadiazol-5-yl)phenyl)cyclohexanecarboxamide] | 500 to 1000 |

Source: patent US20200131129A1, “FARNESOID X RECEPTOR AGONISTS AND USES THEREOF” (Metacrine, Inc., priority 2017, published 2020)
